Each structure is given as a SMILES string.

One may read the melting point as the temperature of the solid-liquid transition. Molecule `COc1cc(Cl)nnc1NS(=O)(=O)c1ccc(Cl)s1` [Example 13, 5-Chloro-N-[6-chloro-4-methoxy-3-pyridazinyl]thiophene-2-sulphonamide] had a melting point of 120 to 122 °C. Take `COc1cnc(Cl)nc1NS(=O)(=O)c1cccc(Cl)c1Cl` [Example 7, 2,3-Dichloro-N-[2-chloro-5-methoxy-4-pyrimidinyl]benzenesulphonamide]: the melting point lay in the range of 244 to 245 °C. The molecule `COc1ncc(NS(=O)(=O)c2cccc(Cl)c2Cl)c(OC)n1` [Example 5, 2,3-Dichloro-N-[2,4-dimethoxy-5-pyrimidinyl]benzenesulphonamide] returned a melting point of 124 to 126 °C. `COc1ccnnc1NS(=O)(=O)c1cccc(Cl)c1Cl` [Example 1, 2,3-Dichloro-N-[4-methoxy-3-pyridazinyl]benzenesulphonamide] returned a melting point of 210 to 211 °C. The molecule `COc1cncnc1NS(=O)(=O)c1cccc(Cl)c1Cl` [Example 8, 2,3-Dichloro-N-[5-methoxy-4-pyrimidinyl]benzenesulphonamide] showed a melting point of 278 to 279 °C. With `COc1ncncc1NS(=O)(=O)c1cccc(Cl)c1Cl` [Example 6, 2,3-Dichloro-N-[4-methoxy-5-pyrimidinyl]benzenesulphonamide], the melting point lay within 204 to 211 °C.

Take `COc1cnc(C)nc1NS(=O)(=O)c1ccc(Cl)s1` [Example 12, 5-Chloro-thiophene-2-sulphonic acid, [5-methoxy-2-methyl-4-pyrimidinyl]amide]: the melting point was 249 to 250 °C. Next, `COc1cnc(C(F)(F)F)nc1NS(=O)(=O)c1cccc(Cl)c1Cl` [Example 10, 2,3-Dichloro-N-[5-methoxy-2-trifluoromethyl-4-pyrimidinyl]benzenesulphonamide]: 190 to 191 °C; `O=S(=O)(Nc1nnc(Cl)cc1OCc1cccnc1)c1cccc(Cl)c1Cl` [Example 3, 2,3-Dichloro-N-[6-chloro-4-(3-pyridinylmethoxy)-3-pyridazinyl]benzenesulphonamide]: 216 to 217 °C; `COc1cnc(Cl)nc1NS(=O)(=O)c1ccc(Cl)s1` [Example 11, 5-Chloro-thiophene-2-sulphonic acid, [2-chloro-5-methoxy-4-pyrimidinyl]amide]: 201 to 202 °C.

As to `COc1cc(Cl)nnc1NS(=O)(=O)c1cccc(Cl)c1Cl` [Example 2, 2,3-Dichloro-N-[6-chloro-4-methoxy-3-pyridazinyl]benzenesulphonamide], the melting point was 226 to 227 °C.

The values above are taken from patent publication US20060189613A1, “Sulphonamide Compounds that Modulate Chemokine Receptor Activity (CCR4)” (priority 2003, published 2006).
